Reference: patent publication US5466717A, “Halogenated 4'-methoxyacetophenones as microbicides and preservatives” (Buckman Laboratories Int'l, Inc., priority 1993, dated 1995)
Like-named read-outs stand apart in the source and are kept apart here.

Assays:
Pseudomonas aeruginosa = assay: Pulp substrate method, percent kill of P. aeruginosa (Table 2); format: cell-based
Method: Compounds 1 and 2 were tested by the pulp substrate method described in detail in U.S. Pat. No. 2,881,070, column 5, line 12--column 6, line 53. The disclosure of U.S. Pat. No. 2,881,070 is specifically incorporated here by reference. […] The tests utilized Enterobacter aerogenes and Pseudomonas aeruginosa in pulp substrates that had been buffered at pH 7.0 and 8.0.

Aspergillus niger = assay: Inhibition of Aspergillus niger, modified pulp substrate method (Table 3); format: cell-based; set-up: key: 4: excellent; 3: good; 2: poor; 1: very poor, scant, questionable; 0: no growth; details: pH 4.5 to 5.0
Method: The growth inhibiting activity of compounds 1 and 2 on the fungus Aspergillus niger was evaluated. A variation of the pulp substrate method of Example 2 was used.
When fungi are used as test organisms, the pulp-substrate test method is modified to permit the growth of fungi. The pulp substrate comprises an aqueous slurry of spruce groundwood containing 1 percent by weight (dry basis) of wood fibers enriched by the addition of 0.26 percent of sodium nitrate and 0.64 percent of maltose (technical grade). Forty-gram portions of the enriched groundwood pulp slurry were added to 250 mL Erlenmeyer flasks fitted with loose metal caps and were then sterilized. Each of the following substances was then added to the flasks in the order listed:
(1) Sterile, demineralized water as required in each individual case was added to bring the total weight of the contents of each flask to 50 grams, after allowing for all subsequent additions specified hereinafter (including inoculation with the aqueous suspension of spores and/or mycelial fragments of the test fungus).
(2) One milliliter of a 2.0 percent by weight sterile solution of rosin size. Rosin size is the pasty sodium soap of rosin containing approximately 20 to 30 percent free rosin and 30 percent water. A suitable rosin size is that known as rosin size 70D made by Papermaker's Chemical Department, Hercules, Inc., Kalamazoo, Mich.
(3) A solution of the toxicant or control agent to be evaluated in each test, to give the concentration desired in parts per million by weight.
(4) A sterile solution of buffer salts to adjust the substrate to a pH of 4.5 to 5.0, prepared from 0.2M solutions of potassium acid phthalate and sodium hydroxide. The buffer mixtures were prepared according to the procedures set forth in U.S. Pat. No. 2,881,070.
(5) Inoculum consisting of 1 milliliter of an aqueous suspension of spores and/or mycelial fragments of the test organism, Aspergillus niger.
After the inoculant suspensions of the test fungi were added, the flasks were incubated at a temperature of 30°±1° C. for a period adequate for growth to occur in the controls (portions of inoculated pulp substrate which contained no toxicant). The customary periods of incubation were 7 and 14 days. Growth was recorded after each period on the basis of the following key: […]

E. aerogenes = assay: Basal salts method, percentage kill of E. aerogenes (Table 5); format: cell-based, Enterobacter aerogenes; details: Klebsiella aerogenes
Method: (§1) Compounds 1 and 2 were tested against bacterial growth by the basal salts method described in U.S. Pat. No. 2,881,070, Column 5, line 12--Column 6, line 53. The disclosure of U.S. Patent No. 2,881,070 is specifically incorporated here by reference.

P. aeruginosa = assay: Basal salts method, percentage kill of P. aeruginosa (Table 5); format: cell-based; details: Pseudomonas aeruginosa
Method: as §1

[1] = test system: Desulfovibrio desulfuricans; assay: Effectiveness against sulfate reducing bacterium, Method API Rp 38 (Table 7); format: cell-based; set-up: key: +: growth; 0: no growth; details: pH 7.0, duplicates
Method: (§2) The effectiveness of compounds 1 and 2 against Desulfovibrio desulfuricans,a sulfate reducing bacterium, was determined using the method recommended by the American Petroleum Institute (Method API Rp 38). The composition of the sulfate-reducer medium for the bacteriostatic test is as follows: The ingredients are dissolved by gentle heating with constant stirring. […] If necessary, the medium is then filtered through Whatman No. 1 or No. 2 filter paper. Following filtration, the medium is autoclaved at 15 lb steam pressure for […]. After autoclaving, the medium is allowed to cool slightly and the iron salt, Fe(SO4)2 (NH4)2.6H2 O, is added. The pH is then checked and readjusted if necessary. The medium is now cooled to room temperature as rapidly as possible, without agitation. After cooling, the medium is inoculated from the third successive 24-hour transfer of an actively growing culture (a liquid culture which turns black within 24 hours after inoculation) of sulfate-reducing bacteria. Ten milliliters of inoculum are added to each liter of medium. From stock solutions of the chemical to be screened, sufficient amounts of the compounds are added to 1- or 2-oz clear bottles so that the desired concentrations of chemicals are present when the containers are filled. The amount of stock solution added cannot exceed 10 percent of the volume of the test bottle. After addition of the chemical, the bottles are completely filled with the inoculated medium. The bottles are then capped with plastic caps containing cork and aluminum foil or Teflon liners and are incubated at 30°±2° C. All work is done in duplicate with at least three controls for each series. The controls consist of bottles filled with inoculated medium only. Growth of sulfate-reducing bacteria in the bottles is indicated by an intense blackening of the medium, whereas containers having sufficient chemical to inhibit growth will remain clear. Bottles with no sulfate-reducing bacteria growth are observed for a period of 28 days after the controls have blackened. The results were recorded using a +/0 scale where "+" indicates growth and "0" indicates no growth.

[2] = test system: Desulfovibrio desulfuricans; assay: as above; format: cell-based; set-up: key: 4: excellent; 3: good; 2: poor; 1: very poor, scant, questionable; 0: no growth; details: pH 7.0, duplicates
Method: as §2

[3] = pH 7.0, read-out: % Kill of P. aeroginosa
[4] = pH 8.0, read-out: % Kill of P. aeroginosa

COc1ccc(C(=O)CBr)cc1Br [Compound 1, 2,3'-dibromo-4'-methoxyacetophenone]
killing at 1 ppm (Pseudomonas aeruginosa; [3]): 6%
killing at 1 ppm (Pseudomonas aeruginosa; [4]): 85%
killing at 2 ppm (Pseudomonas aeruginosa; [3]): 7%
killing at 2 ppm (Pseudomonas aeruginosa; [4]): 75%
killing at 4 ppm (Pseudomonas aeruginosa; [3]): 43%
killing at 4 ppm (Pseudomonas aeruginosa; [4]): 89%
killing at 8 ppm (Pseudomonas aeruginosa; [3]): 67%
killing at 8 ppm (Pseudomonas aeruginosa; [4]): 70%
killing at 10 ppm (Pseudomonas aeruginosa; [3]): 93%
killing at 10 ppm (Pseudomonas aeruginosa; [4]): 79%
killing at 15 ppm (Pseudomonas aeruginosa; [3]): 94%
killing at 15 ppm (Pseudomonas aeruginosa; [4]): 94%
killing at 20 ppm (Pseudomonas aeruginosa; [3]): 98%
killing at 20 ppm (Pseudomonas aeruginosa; [4]): 89%
killing at 25 ppm (Pseudomonas aeruginosa; [3]): 97%
killing at 25 ppm (Pseudomonas aeruginosa; [4]): 99%
Inhibition of Aspergillus niger, growth after 14 days (Aspergillus niger; 5 ppm): 4
Inhibition of Aspergillus niger, growth after 14 days (Aspergillus niger; 10 ppm): 2
Inhibition of Aspergillus niger, growth after 14 days (Aspergillus niger; 25 ppm): 0
Inhibition of Aspergillus niger, growth after 14 days (Aspergillus niger; 100 ppm): 0
killing at 2 ppm (E. aerogenes; pH 8.0): 99%
killing at 4 ppm (E. aerogenes; pH 8.0): 99.9%
killing at 8 ppm (E. aerogenes; pH 8.0): 100%
killing at 10 ppm (E. aerogenes; pH 6.0): 100%
killing at 10 ppm (E. aerogenes; pH 8.0): 100%
killing at 20 ppm (E. aerogenes; pH 6.0): 100%
killing at 20 ppm (E. aerogenes; pH 8.0): 100%
killing at 30 ppm (E. aerogenes; pH 6.0): 100%
killing at 30 ppm (E. aerogenes; pH 8.0): 100%
killing at 10 ppm (P. aeruginosa; pH 6.0): 100%
killing at 10 ppm (P. aeruginosa; pH 8.0): 98%
killing at 20 ppm (P. aeruginosa; pH 6.0): 100%
killing at 20 ppm (P. aeruginosa; pH 8.0): 99%
killing at 30 ppm (P. aeruginosa; pH 6.0): 100%
killing at 30 ppm (P. aeruginosa; pH 8.0): 99.6%
growth of Desulfovibrio desulfuricans ([1]; 1 ppm): +
growth of Desulfovibrio desulfuricans ([1]; 2 ppm): +
growth of Desulfovibrio desulfuricans ([1]; 8 ppm): +
growth of Desulfovibrio desulfuricans ([2]; 4 ppm): 0
growth of Desulfovibrio desulfuricans ([2]; 10 ppm): 0
growth of Desulfovibrio desulfuricans ([2]; 15 ppm): 0
growth of Desulfovibrio desulfuricans ([2]; 20 ppm): 0

COc1ccc(C(=O)C(Br)Br)cc1Br [Compound 2, 2,2,3'-tribromo-4'-methoxyacetophenone]
killing at 1 ppm (Pseudomonas aeruginosa; [3]): 15%
killing at 1 ppm (Pseudomonas aeruginosa; [4]): 0%
killing at 2 ppm (Pseudomonas aeruginosa; [3]): 0%
killing at 2 ppm (Pseudomonas aeruginosa; [4]): 54%
killing at 4 ppm (Pseudomonas aeruginosa; [3]): 36%
killing at 4 ppm (Pseudomonas aeruginosa; [4]): 25%
killing at 8 ppm (Pseudomonas aeruginosa; [3]): 17%
killing at 8 ppm (Pseudomonas aeruginosa; [4]): 71%
killing at 10 ppm (Pseudomonas aeruginosa; [3]): 80%
killing at 10 ppm (Pseudomonas aeruginosa; [4]): 86%
killing at 15 ppm (Pseudomonas aeruginosa; [3]): 97%
killing at 15 ppm (Pseudomonas aeruginosa; [4]): 94%
killing at 20 ppm (Pseudomonas aeruginosa; [3]): 98%
killing at 20 ppm (Pseudomonas aeruginosa; [4]): 99%
killing at 25 ppm (Pseudomonas aeruginosa; [3]): 97%
killing at 25 ppm (Pseudomonas aeruginosa; [4]): 99%
Inhibition of Aspergillus niger, growth after 14 days (Aspergillus niger; 5 ppm): 4
Inhibition of Aspergillus niger, growth after 14 days (Aspergillus niger; 10 ppm): 2
Inhibition of Aspergillus niger, growth after 14 days (Aspergillus niger; 25 ppm): 0
Inhibition of Aspergillus niger, growth after 14 days (Aspergillus niger; 100 ppm): 0
killing at 2 ppm (E. aerogenes; pH 8.0): 57%
killing at 4 ppm (E. aerogenes; pH 8.0): 100%
killing at 8 ppm (E. aerogenes; pH 8.0): 100%
killing at 10 ppm (E. aerogenes; pH 6.0): 100%
killing at 10 ppm (E. aerogenes; pH 8.0): 100%
killing at 20 ppm (E. aerogenes; pH 6.0): 100%
killing at 20 ppm (E. aerogenes; pH 8.0): 100%
killing at 30 ppm (E. aerogenes; pH 6.0): 100%
killing at 30 ppm (E. aerogenes; pH 8.0): 100%
killing at 10 ppm (P. aeruginosa; pH 6.0): 99.8%
killing at 10 ppm (P. aeruginosa; pH 8.0): 94%
killing at 20 ppm (P. aeruginosa; pH 6.0): 100%
killing at 20 ppm (P. aeruginosa; pH 8.0): 100%
killing at 30 ppm (P. aeruginosa; pH 8.0): 100%
growth of Desulfovibrio desulfuricans ([1]; 1 ppm): +
growth of Desulfovibrio desulfuricans ([1]; 2 ppm): +
growth of Desulfovibrio desulfuricans ([1]; 8 ppm): +
growth of Desulfovibrio desulfuricans ([2]; 4 ppm): 0
growth of Desulfovibrio desulfuricans ([2]; 8 ppm): 0
growth of Desulfovibrio desulfuricans ([2]; 10 ppm): 0
growth of Desulfovibrio desulfuricans ([2]; 15 ppm): 0
growth of Desulfovibrio desulfuricans ([2]; 20 ppm): 0
